{"source": "paper PMC13195669", "about": "“GPR3 Ligands Discovered through Combined Virtual and Conformational Biosensor-Based Screening” (Journal of the American Chemical Society, 2026)", "key": {"GPR3": {"biological_target": "T1, GPR3 (Homo sapiens, UniProt P46089)", "T1 construct": "host or cells: HEK293A, transient", "T1 sequence (P46089 whole entry)": "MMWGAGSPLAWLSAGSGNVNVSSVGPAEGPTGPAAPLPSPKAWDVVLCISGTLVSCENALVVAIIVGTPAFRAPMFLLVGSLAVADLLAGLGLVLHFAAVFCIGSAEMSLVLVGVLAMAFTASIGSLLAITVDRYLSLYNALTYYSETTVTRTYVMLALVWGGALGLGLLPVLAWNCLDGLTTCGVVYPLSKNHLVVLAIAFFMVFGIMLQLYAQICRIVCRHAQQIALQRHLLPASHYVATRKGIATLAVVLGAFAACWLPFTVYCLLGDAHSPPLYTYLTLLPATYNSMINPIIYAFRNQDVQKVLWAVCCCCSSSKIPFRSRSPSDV", "test": "cAMP GloSensor 22F, GPR3-transfected HEK293A cells", "type": "cell-based", "details": "read-out: EC50 of cAMP decrease in GPR3-expressing cells", "description": "(§1) Next, we used the classical cAMP GloSensor technology to assess the target selectivity profile of 33. […] In addition, we tested the effects of 33 on cAMP changes mediated by agonist-stimulated GPCRs phylogenetically close to GPR3 and coupling to Gs or Gi/o proteins. […]\n(§2) conditioning and no constraints were applied. The poses were visually inspected and the most favorable one that coincides with the co-solved ligand according to the available structures was chosen.\n(§3) Plasmids and molecular cloning\n(§4) The H187-EPAC-FRET sensor7 was kindly provided by K. Jalink (The Netherlands Cancer Institute, Amsterdam, The Nether-lands). The BRET-based cAMP sensor CAMYEL8 was kindly provided by Laura Humphrys (University of Regensburg, Regens-burg, Germany). Plasmids encoding the conformational biosensors α2AAR- and β2AR-HaloTag/Nluc9 and the Gs heterotrimer dissociation sensor10 were previously described. The expression plasmid encoding N-terminally HA-tagged GPR3 (cat. no.\n(§5) #GPR003TN00) on a pcDNA3.1+ vector was obtained from the cDNA resource center (cdna.org). The Nluc and HaloTag in-serts were amplified with overhanging restriction sites from β2AAR- HaloTag/Nluc and ligated to the full-length C-terminus or inserted into icl3 of GPR3, respectively, to obtain the conformational biosensor GPR3-HaloTag/Nluc. […]"}, "GPR6": {"biological_target": "T2, GPR6 (Homo sapiens, UniProt P46095)", "T2 construct": "expressed in transfected cells; host or cells: HEK293A, transient", "T2 sequence (P46095 whole entry, species assumed)": "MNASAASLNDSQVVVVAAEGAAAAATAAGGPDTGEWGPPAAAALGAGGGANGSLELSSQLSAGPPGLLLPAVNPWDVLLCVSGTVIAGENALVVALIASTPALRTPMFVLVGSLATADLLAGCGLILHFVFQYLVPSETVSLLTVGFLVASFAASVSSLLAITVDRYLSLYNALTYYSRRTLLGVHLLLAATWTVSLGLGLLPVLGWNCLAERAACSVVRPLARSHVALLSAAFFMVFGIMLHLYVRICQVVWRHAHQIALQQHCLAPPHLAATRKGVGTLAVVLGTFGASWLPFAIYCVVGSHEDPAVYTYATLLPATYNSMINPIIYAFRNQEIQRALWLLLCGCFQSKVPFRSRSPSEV", "test": "cAMP GloSensor 22F, GPR6-transfected HEK293A cells", "type": "cell-based", "description": "as §1, §2, §3, §4, §5"}}}
{"smiles": "N=c1n(Cc2ccccc2)c2ccccc2n1CC1CC1", "note": "[compound 33]", "values": [{"measurement": "EC50", "setting": "GPR3", "result": 2000, "unit": "nM"}, {"measurement": "receptor-specific change in cAMP, GPR6", "setting": "GPR6", "result": "no receptor-specific changes in cAMP levels below 100 μM"}]}
